SMILES strings stand for the structures.

Data on ten compounds can be found in patent publication US10597388B2, “Pyridazinone herbicides” (FMC CORPORATION, priority 2014, dated 2020).

What all share (type): in vivo
One test has as its system soybean (Glycine max). The test is described as follows: Test C greenhouse herbicide test, pre- and postemergence. In short, it runs like this:
(§1)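 Greenhouse pots; pre-em on seeded loam:sand blend, post-em on 2–18 cm plants (1–4 leaf) in sphagnum peat/vermiculite medium. Formulation: non-phytotoxic solvent + surfactant. Read-out: visual % control (0–100) vs controls at 13–15 d.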

Test [1] concerns wheat (winter wheat, Triticum aestivum). The description is as above. In short, it runs like this: as §1
Test [2] has as its system chickweed (common chickweed, Stellaria media). The test is described as follows: Test C greenhouse herbicide test, postemergence. The method, boiled down: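 Greenhouse postemergence spray on plants 2–18 cm tall; response judged visually after 13–15 d relative to untreated controls using a 0 (none) to 100 (full control) scale.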
Test [3] deals with barnyardgrass (Echinochloa crus-galli). The test is described as follows: Test B flooded paddy test. The conditions noted are these: Echinochloa crus-galli, 360 h; 250 g ai/ha, Flood; visual rating on scale of 0 to 100 where 0 is no effect and 100 is complete control; 13 to 15 d after treatment; read-out: Plant response rating, Barnyardgrass. In short, it runs like this:
(§2)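 Ratings use a 0-100 visual scale, where 100 is complete control, and compare treated plants with controls after 13 to 15 d of greenhouse growth. Compound went straight into paddy water kept 3 cm over the soil surface, applied to seedlings at the 2-leaf stage.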

For test [4], the system named is ducksalad (Heteranthera limosa). The test is described as follows: Test B flooded paddy test. The conditions noted are these: Heteranthera limosa, 360 h; 250 g ai/ha, Flood; visual rating on scale of 0 to 100 where 0 is no effect and 100 is complete control; 13 to 15 d after treatment; read-out: Plant response rating, Ducksalad. The method, boiled down: as §2
Another test deals with rice (Oryza sativa). The test is described as follows: Test B flooded paddy test. The settings on record: Oryza sativa, 360 h; 250 g ai/ha, Flood; visual rating on scale of 0 to 100 where 0 is no effect and 100 is complete control; 13 to 15 d after treatment; read-out: Plant response rating, Rice. The method, boiled down: as §2
In test [5] the test system is sedge, umbrella (small-flower umbrella sedge, Cyperus difformis). The test is described as follows: Test B flooded paddy test. The conditions noted are these: Cyperus difformis, 360 h; 250 g ai/ha, Flood; visual rating on scale of 0 to 100 where 0 is no effect and 100 is complete control; 13 to 15 d after treatment; read-out: Plant response rating, Sedge, Umbrella. The method, boiled down: as §2

The mark [6] stands for this setting: Postemergence, 31 g ai/ha, 0 to 100 scale (0 no effect, 100 complete control).
Setting [7] is: Postemergence, 125 g ai/ha, scale 0 to 100, 0 is no effect, 100 is complete control.
[8] abbreviates: Postemergence, 250 g ai/ha, scale 0 to 100, 0 no effect, 100 complete control, 13 to 15 d.
Setting [9] is: Preemergence, 31 g ai/ha, scale 0 to 100, 0 is no effect, 100 is complete control.
Where [10] appears, read: Preemergence, 62 g ai/ha, scale 0 to 100, 0 is no effect, 100 is complete control.
[11] abbreviates: Preemergence, 125 g ai/ha, scale 0 to 100, 0 is no effect, 100 is complete control.
Where [12] appears, read: Preemergence, 250 g ai/ha, scale 0 to 100 (0 no effect, 100 complete control).
The mark [13] stands for this setting: postemergence, 62 g ai/ha, scale 0 to 100, 0 no effect, 100 complete control.
[14] abbreviates: Postemergence, 31 g ai/ha, scale 0 to 100 (0 no effect, 100 complete control).
The mark [15] stands for this setting: Postemergence, 62 g ai/ha, 0 to 100 scale (0 no effect, 100 complete control).
Where [16] appears, read: postemergence, 125 g ai/ha, scale 0 to 100, 0 no effect, 100 complete control.
Setting [17] is: Postemergence, 16 g ai/ha, scale 0 to 100 (0 no effect, 100 complete control).

With `CCOC(=O)Oc1c(C)nn(C)c(=O)c1-c1c(CC)ccc2ccccc12` [Compound 37], the “Soybean plant response rating” value is reported as 10 with soybean (Glycine max) (setting [6]), 65 in the test on soybean (Glycine max) (setting [12]) and 5 in the test on soybean (Glycine max) (setting [13]). Also, the “Plant response rating, Soybean” value is reported as 15 with soybean (Glycine max) (setting [7]); 25 with soybean (Glycine max) (setting [8]); 0 in the test with soybean (Glycine max) (setting [9]); 30 in the test with soybean (Glycine max) (setting [10]); 20 in the test on soybean (Glycine max) (setting [11]). Moreover, the “Wheat plant response rating” value in test [1] (setting [6]) is given as 30; in test [1] (setting [12]), 45; in test [1] (setting [13]), 0. The “Plant response rating, Wheat” value in test [1] (setting [7]) was 30; in test [1] (setting [8]), 35; in test [1] (setting [9]), 0; in test [1] (setting [10]) it was 0; in test [1] (setting [11]), 5. Moreover, the “Chickweed plant response rating” value in test [2] (setting [6]) and in test [2] (setting [13]) was 90 in each case. For the same compound, the entries for the “Plant response rating, Chickweed” value in test [2] (setting [7]) and in test [2] (setting [8]) were 90 and 95, respectively.

With `CCc1sc2cc(C)cc(C)c2c1-c1c(O)c(C)nn(C)c1=O` [Compound 19, 4-(2-ethyl-4,6-dimethylbenzo[b]thien-3-yl)-5-hydroxy-2,6-dimethyl-3(2H)-pyridazinone], the pest or weed control at 250 g/ha in test [3], in test [4] and in test [5] was 0% in each case. Besides, in the test on rice (Oryza sativa), the plant injury at 250 g/ha turned out to be 0%.

In the case of `CC(=O)Oc1c(C)nn(C)c(=O)c1-c1c(C)oc2c(C)cccc12` [Compound 15, 5-(acetyloxy)-4-(2,7-dimethyl-3-benzofuranyl)-2,6-dimethyl-3(2H)-pyridazinone], the pest or weed control at 250 g/ha in test [3] is 0%; in test [4], 20%; in test [5], 0%. The plant injury at 250 g/ha in the test with rice (Oryza sativa) turned out to be 0%.

As to `Cc1ccc(-c2c(O)c(Br)nn(C)c2=O)c2ccccc12` [Compound 52], the “Soybean plant response rating” value with soybean (Glycine max) (setting [6]) and in the test with soybean (Glycine max) (setting [13]) was 0 throughout. Further, the “Plant response rating, Soybean” value in the test with soybean (Glycine max) (setting [7]) and in the test on soybean (Glycine max) (setting [8]) was 0 in each case. In addition, the “Wheat plant response rating” value in test [1] (setting [6]) and in test [1] (setting [13]) was 0 in each case. Besides, the “Plant response rating, Wheat” value in test [1] (setting [7]) and in test [1] (setting [8]) was 0 each time. The “Chickweed plant response rating” value stood at 95 in test [2] (setting [6]) and 90 in test [2] (setting [13]). In addition, the figures for the “Plant response rating, Chickweed” value in test [2] (setting [7]) and in test [2] (setting [8]) were 98 and 100, respectively.

In the case of `Cc1nn(C)c(=O)c(-c2c(C)oc3c(C)cccc23)c1O` [Compound 9, 4-(2,7-dimethyl-3-benzofuranyl)-5-hydroxy-2,6-dimethyl-3(2H)-pyridazinone], the pest or weed control at 250 g/ha in test [3], in test [4] and in test [5] was 0% in each case. Further, in the test on rice (Oryza sativa), the plant injury at 250 g/ha was 0%.

As for `Cc1cc(C)c2oc(C)c(-c3c(O)c(C)nn(C)c3=O)c2c1` [Compound 12, 5-hydroxy-2,6-dimethyl-4-(2,5,7-trimethyl-3-benzofuranyl)-3(2H)-pyridazinone], the pest or weed control at 250 g/ha in test [3] was found to be 0%; in test [4], 30%; in test [5], 0%. Also, the plant injury at 250 g/ha with rice (Oryza sativa) was found to be 0%.

As for `CC(=O)Oc1c(Br)nn(C)c(=O)c1-c1c(C)ccc2ccccc12` [Compound 129], the “Plant response rating, Soybean” value in the test with soybean (Glycine max) (setting [14]) is recorded as 0; in the test on soybean (Glycine max) (setting [8]), 25; in the test on soybean (Glycine max) (setting [9]), 0; in the test on soybean (Glycine max) (setting [10]), 0; in the test on soybean (Glycine max) (setting [11]), 5. The “Soybean plant response rating” value in the test with soybean (Glycine max) (setting [15]) is reported as 10; in the test on soybean (Glycine max) (setting [12]), 20; with soybean (Glycine max) (setting [16]), 20. Moreover, the “Plant response rating, Wheat” value is recorded as 10 in test [1] (setting [14]); 55 in test [1] (setting [8]); 35 in test [1] (setting [9]); 50 in test [1] (setting [10]); 55 in test [1] (setting [11]). For the same compound, the “Wheat plant response rating” value is 35 in test [1] (setting [15]), 85 in test [1] (setting [12]) and 40 in test [1] (setting [16]). Also, the “Plant response rating, Chickweed” value was 98 in test [2] (setting [14]) and 100 in test [2] (setting [8]). The figures for the “Chickweed plant response rating” value in test [2] (setting [15]) and in test [2] (setting [16]) were 98 and 100, respectively.

Turning to `Cc1nn(C)c(=O)c(-c2c(C)sc3ccc(Cl)cc23)c1O` [Compound 104], the “Plant response rating, Soybean” value with soybean (Glycine max) (setting [14]) was 0; in the test on soybean (Glycine max) (setting [7]), 10; in the test on soybean (Glycine max) (setting [8]), 10; in the test with soybean (Glycine max) (setting [9]), 0; in the test with soybean (Glycine max) (setting [10]) it was 0; in the test with soybean (Glycine max) (setting [11]), 0. Besides, in the test on soybean (Glycine max) (setting [12]), the “Soybean plant response rating” value is listed as 0. Also, the “Plant response rating, Wheat” value was 0 in test [1] (setting [14]); 5 in test [1] (setting [7]); 10 in test [1] (setting [8]); 5 in test [1] (setting [9]); 5 in test [1] (setting [10]); 5 in test [1] (setting [11]). Also, the “Wheat plant response rating” value in test [1] (setting [12]) came to 0. Moreover, the “Plant response rating, Chickweed” value amounted to 90 in test [2] (setting [14]), 100 in test [2] (setting [7]) and 100 in test [2] (setting [8]). Further, the “Chickweed plant response rating” value in test [2] (setting [13]) was 98.

As to `COc1ccc2ccccc2c1-c1c(O)c(C)nn(C)c1=O` [Compound 40], the “Plant response rating, Soybean” value is given as 35 in the test on soybean (Glycine max) (setting [17]) and 30 in the test with soybean (Glycine max) (setting [7]). Also, the entries for the “Soybean plant response rating” value in the test on soybean (Glycine max) (setting [6]) and in the test with soybean (Glycine max) (setting [13]) were 5 and 60, respectively. For the same compound, the “Plant response rating, Wheat” value in test [1] (setting [17]) was 0; in test [1] (setting [7]), 10. The “Wheat plant response rating” value in test [1] (setting [6]) and in test [1] (setting [13]) was 10 in each case. In addition, the “Plant response rating, Chickweed” value was 50 in test [2] (setting [17]) and 90 in test [2] (setting [7]). The “Chickweed plant response rating” value in test [2] (setting [6]) came to 55; in test [2] (setting [13]), 60.

Regarding `CCCC(=O)Oc1c(C)nn(C)c(=O)c1-c1c(C)sc2c(C)cc(C)cc12` [Compound 106], the “Plant response rating, Soybean” value in the test with soybean (Glycine max) (setting [14]) came to 0; in the test with soybean (Glycine max) (setting [7]), 0; in the test with soybean (Glycine max) (setting [8]), 10; in the test on soybean (Glycine max) (setting [9]), 0; in the test with soybean (Glycine max) (setting [10]), 0; in the test on soybean (Glycine max) (setting [11]), 0. Also, the “Soybean plant response rating” value with soybean (Glycine max) (setting [12]) stood at 0. The “Plant response rating, Wheat” value in test [1] (setting [14]) stood at 0; in test [1] (setting [7]), 0; in test [1] (setting [8]) it was 5; in test [1] (setting [9]), 15; in test [1] (setting [10]), 0; in test [1] (setting [11]), 0. Also, in test [1] (setting [12]), the “Wheat plant response rating” value came out at 0. Moreover, the entries for the “Plant response rating, Chickweed” value in test [2] (setting [14]), in test [2] (setting [7]) and in test [2] (setting [8]) were 95, 95 and 98, respectively. Further, the “Chickweed plant response rating” value in test [2] (setting [13]) was 98.
